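Test compounds were applied to cells in 96-well plates for 48 hours at 5 doses. GI50 = concentration required for 50% inhibition of growth.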 Active and inactive are the calls of the source. Cut-off read from the data, not from the text of the source: active = GI50 up to about 1.1 µM and inactive = higher. Some results are limits rather than exact numbers.

Data on five compounds can be found in ChEMBL document CHEMBL1201862, “PubChem BioAssay data set” (2004).

Common to all, as to assay: growth of human tumour cells (NCI), 48 h
In assay [1] the test system is A549.
The subject of assay [2] is BT-549.
In assay [3] the test system is EKVX.
The test system of assay [4] is HCT-15.
The test system of assay [5] is Hs-578T.
Assay [6] deals with MCF7.
Assay [7] relates to MDA-MB-231.
The test system of assay [8] is NCI-H226.
In assay [9] the test system is NCI-H460.
Assay [10] deals with RXF 393.
For assay [11], the system named is SF-268.
Assay [12] relates to SF-539.
Assay [13] has as its system SN12C.
Assay [14] relates to SW-620.
Assay [15] has as its system T47D.
Assay [16] relates to HCC 2998.
In assay [17] the test system is MOLT-4.

Consider `COc1cccc(CSCC(=O)O)c1`, for which the GI50 in assay [1] was > 100 µM (inactive); in assay [2], > 100 µM (inactive); in assay [3] it was > 100 µM (inactive); in [4], above 100 µM; in assay [5], > 100 µM (inactive); in assay [6], > 100 µM (inactive). For the same compound, the GI50 in assay [7], in assay [8], in assay [9], in [10], in assay [11] and in assay [12] was > 100 µM (inactive) throughout. Besides, the GI50 in [13], in assay [14] and in [15] was > 100 µM (inactive) in each case.
In the case of `CC1CCc2sc3nc(S)n(C)c(=O)c3c2C1` (centres undefined), the GI50 in [1] is 33.6 µM (inactive); in [2] it was 96.8 µM (inactive); in [3] it was 19 µM (inactive); in [16], 22.2 µM (inactive); in assay [4], 39.5 µM; in assay [5] it was 78.2 µM (inactive). Also, the GI50 in assay [6] is 35.5 µM (inactive); in [7], 36.7 µM (inactive); in [17], 41.4 µM (inactive); in [8], 26.7 µM (inactive); in assay [9] it was 35.4 µM (inactive); in [10], 57.9 µM (inactive). In addition, the GI50 is 48.1 µM (inactive) in assay [11], 36.5 µM (inactive) in assay [13], 39.2 µM (inactive) in [14] and 48.5 µM (inactive) in assay [15].
As to `COc1ccc(/C=C2\C[C@H]3[C@@H]4CCC5=C/C(=N/O)CC[C@]5(C)[C@H]4CC[C@]3(C)\C2=N\O)cc1`, the GI50 in [1] was 5.01 µM (inactive); in assay [2], 15.9 µM (inactive); in assay [3], 12.5 µM (inactive); in assay [16] it was 15.8 µM (inactive); in [4], 10.6 µM; in assay [5] it was 28.5 µM (inactive). Also, the GI50 in assay [6] was 5.01 µM (inactive); in assay [7], 31.6 µM (inactive); in [17] it was 6.7 µM (inactive); in assay [8], 19.1 µM (inactive); in [9] it was 6.59 µM (inactive); in assay [10] it was 7.1 µM (inactive). Moreover, the GI50 is 16.9 µM (inactive) in assay [11], 14.1 µM (inactive) in assay [13], 36.9 µM (inactive) in assay [14] and 7.98 µM (inactive) in [15].
In the case of `CCOC(=O)c1nc2cc(C(F)(F)F)ccc2nc1Nc1ccc(OC)cc1`, the GI50 in assay [1] was > 100 µM (inactive); in assay [2] it was > 100 µM (inactive); in [3] it was > 100 µM (inactive); in assay [16], > 100 µM (inactive); in [4], above 100 µM; in assay [5], 54.1 µM (inactive). Further, the GI50 in [6] was > 100 µM (inactive); in assay [7], 61.7 µM (inactive); in assay [17], > 100 µM (inactive); in assay [8] it was > 100 µM (inactive); in assay [10], 56.1 µM (inactive); in assay [11], > 100 µM (inactive). Moreover, the GI50 in assay [12] was > 100 µM (inactive); in assay [13], > 100 µM (inactive); in assay [14], > 100 µM (inactive); in assay [15], 95.1 µM (inactive).
Regarding `Cc1ccc(Nc2[nH]c(=O)[nH]c(=O)c2C)cc1Cl`, the GI50 is > 100 µM (inactive) in assay [1]; > 100 µM (inactive) in assay [2]; 11 µM (inactive) in assay [3]; > 100 µM (inactive) in assay [16]; 91.6 µM in assay [4]; 70 µM (inactive) in assay [5]. The GI50 is 19.5 µM (inactive) in assay [6]; > 100 µM (inactive) in assay [7]; > 100 µM (inactive) in assay [8]; > 100 µM (inactive) in assay [9]; > 100 µM (inactive) in assay [10]; 87.7 µM (inactive) in assay [11]. Besides, the GI50 in assay [12], in assay [13], in assay [14] and in assay [15] was > 100 µM (inactive) throughout.
